The source of these data is patent publication US8124582B2, “Treatment of diabetes” (FibroGen, Inc., priority 2002, dated 2012).

The structures appear in SMILES notation.

Series [1] is described as follows: Glycated hemoglobin (HbA1c) in db/db mice. Type of series: in vivo, male db/db mice. The note with it: 0.5 mg/ml in drinking water. As to the method: The effect of compound administration on glycated hemoglobin levels was examined using a mouse model of diabetes as follows. Twenty male db/db mice (Harlan) received drinking water containing either vehicle (100 μM histidine) or compound A (0.5 mg/ml) for a period of 8 weeks. Prior to study initiation and at weeks 4 and 8 following treatment, blood samples were collected from the tail vein and HbA1c levels were measured using an HbA1cNOW kit (Metrika Inc., Sunnyvale Calif.).

Series [2] can be described thus: Body weight gain, abdominal fat pad and organ weight in diet-induced obesity model. The series is classed as in vivo, male C57BL/6J mice. The note with it: C57BL/6J mice, 75 mg/kg/day oral gavage, 28 days; for abdominal fat pad weight on high-fat diet: FIG. 9B; for organ weights of kidney, liver, and heart between experimental groups: FIG. 9C; for body weight gain on high-fat diet vs untreated high-fat diet: p<0.05, FIG. 9A. An excerpt: C57B1/6J mice fed a high-fat diet develop severe obesity, hyperglycemia, and hyperinsulinemia, and are a model of diet-induced obesity, Type 2 diabetes, and impaired glucose tolerance. Forty male C57BL/6J mice obtained from The Jackson Laboratory (Bar Harbor Me.) were divided into the following experimental groups: Group 1: vehicle control animals fed standard mouse chow (n=10); Group 2: vehicle control animals fed high-fat mouse chow (45% fat from Research Diets) (n=10); Group 3: animals fed high-fat mouse chow and administered 75 mg/kg/day compound E by oral gavage (n=10); Group 4: animals fed high-fat mouse chow and administered 75 mg/kg/day compound A by oral gavage (n=10). The feeding regimen was continued for 28 days with weekly measurement of body weight. Animals were then sacrificed and their organs and fat pads were harvested and weighed.

Series [3] in a line: Serum triglyceride levels in db/db mice. Type of series: in vivo, male db/db mice. The note with it: 0.5 mg/ml in drinking water, 8 weeks. An excerpt: The effect of compound administration on triglyceride levels was examined using a mouse model of diabetes as follows: Twenty male db/db mice (Harlan, Indianapolis, Ind.), which carry a homozygous loss-of-function mutation in the leptin receptor, were used for this study. Triglycerdide levels are typically elevated 1.5-2 times in db/db mice compared to that in normal mice. (Nishina et al (1994) Metabolism 43:549-553.) Triglyceride levels in db/db mice progressively increase with age. (Tuman and Doisy (1977) Diabetologia 13:7-11.) Mice received drinking water containing either vehicle (100 μM histidine) or compound A (0.5 mg/ml in 100 μM histidine) for a period of 8 weeks. At the termination of the study, animals were fasted overnight and blood samples were taken from the caudal vena cava under general anesthesia and placed in serum separator tubes. Blood samples were sent to Quality Clinical Labs (Mountain View, Calif.) for analysis.

A further series relates to GluT-1. As to the kind of experiment: GluT-1 protein levels in H9c2 cells (Western blot). Type of series: cell-based, rat. Conditions: H9c2 cells, 5, 10, and 20 μM, 16 hours; FIG. 1B. As to the method:
Human SSC-25 (squamous cell carcinoma) or rat H9c2 (ventricular cardiomyocyte) cells were grown to confluence in 100 mm culture dishes at 37° C., 10% CO2 in DMEM with 10% fetal calf serum. Cells were then washed twice with PBS and incubated with vehicle control, compound D (10 and 25 μM), or compound C (5, 10, and 20 μM) for 16 hours. Plates were placed on ice, culture supernatant was removed, and lysis buffer-1 (LB-1: 10 mM Tris pH 7.4, 1 mM EDTA, 150 mM sodium chloride, 0.5% IGEPAL) was added. Cell lysates were harvested by scraping, incubated for 15 minutes on ice, and then centrifuged at 3000×g for 5 minutes at 4° C. The supernatant, which represents the cytosolic fraction, was collected and cytosolic proteins were separated under reducing conditions using SDS-polyacrylamide gel electrophoresis (SDS-PAGE) with equal amounts of protein loaded per lane.
SDS-PAGE was conducted at 150 V for 2 hours, after which the proteins were transferred to a PVDF membrane at 400 mA for 1.5 hours at 4° C. The membrane was incubated in blocking buffer for 2 hours or overnight and washed once with T-TBS prior to addition of anti-GluT-1 antibody (Alpha Diagnostics) diluted to working concentration in blocking buffer. […]

Another series has as its system HIF-1α. The series can be described thus: HIF-1α stabilization in cells, TRANSAM HIF-1 ELISA of nuclear fractions. The series is classed as cell-based, Human. The note with it: epithelial cells (293A) and hepatocellular carcinoma (Hep3B); FIG. 12B. As to the method: Stabilization of HIFα using compounds and methods of the present invention was examined as follows. Human cells derived from adenovirus-transformed fetal kidney epithelium (293A), cervical epithelial adenocarcinoma (HeLa), hepatocellular carcinoma (Hep3B), squamous carcinoma (SSC-25), and lung fibroblast (HLF) (see, e.g., American Type Culture Collection, Manassas Va.; and Qbiogene, Carlsbad Calif.) were separately seeded into 100 mm culture dishes and grown at 37° C., 20% O2, 10% CO2 in media as follows: HeLa cells in Dulbecco's Modification of Eagle's Medium (DMEM), 2% fetal bovine serum (FBS); HLF cells in DMEM, 10%FBS; 293A cells in DMEM, 5%FBS; and Hep3B cells in Minimal Essential Medium (MEM), Earle's BSS (Mediatech Inc., Herndon Va.), 2 mM L-glutamine, 0.1 mM non-essential amino acids, 1 mM sodium pyruvate, 10% FBS. When cell layers reached confluence, the media was replaced with OPTI-MEM media (Invitrogen Life Technologies, Carlsbad Calif.) and cell layers were incubated for approximately 24 hours in 20% O2, 10% CO2 at 37° C. Compound of the invention (one of compounds B, F, G, and H) or DMSO (0.5 to 1%) was then added to existing medium, and incubation was continued overnight.
Alternatively, nuclear fractions were prepared using a Nuclear Extract kit (Active Motif, Carlsbad Calif.) and were analyzed for HIF-1α using a TRANSAM HIF-1 ELISA kit (Active Motif) according to the manufacturer's instructions.
Background: ELISA stands for enzyme-linked immunosorbent assay.

The nature of series [4]: Intra-Peritoneal Glucose Tolerance Test in diet-induced Type 2 diabetes model. Type of series: in vivo, male C57BL/6J mice. Conditions: 75 mg/kg/day oral gavage, 14 days. As for the experimental part: C57B1/6J mice fed a high-fat diet develop severe obesity, hyperglycemia, and hyperinsulinemia, and are a model of diet-induced obesity, Type 2 diabetes, and impaired glucose tolerance. Forty male C57BL/6J mice obtained from The Jackson Laboratory (Bar Harbor Me.) were divided into the following experimental groups: Group 1: vehicle control animals fed standard mouse chow (n=10); Group 2: animals fed standard mouse chow and administered 75 mg/kg/day compound E by oral gavage (n=10); Group 3: vehicle control animals fed high-fat mouse chow (45% fat from Research Diets) (n=10); Group 4: animals fed high-fat mouse chow and administered 75 mg/kg/day compound E by oral gavage (n=10). The feeding regimen was continued for 14 days with daily measurement of body weight and food consumption. Animals were then fasted for 4 hours prior to an Intra-Peritoneal Glucose Tolerance Test (IPGTT) using a glucose load of 2 g glucose/kg body weight. Blood samples were taken for determination of blood glucose levels at 0, 15, 30, 60, and 90 minutes following glucose administration.

For the compound `O=C(O)CNC(=O)c1nc2cc(Cl)ccc2cc1O` [compound A, [(7-Chloro-3-hydroxy-quinoline-2-carbonyl)-amino]-acetic acid], in series [1], the “HbA1c levels at week 8 vs non-treated” value is reported as “significantly lower”. The “HbA1c levels at week 8” value in series [1] (8 weeks, control rose from about 7.5% to about 10%, FIG. 6) was “about 7.5%”. The “HbA1c levels over time” value in series [1] (weeks 0 to 8) is recorded as “did not increase over time”. Besides, in series [2], the “abdominal fat pad weight on high-fat diet” value is “essentially the same fat pad weight as animals fed a normal diet”; the “organ weights of kidney, liver, and heart between experimental groups” value is reported as “not different”; the “body weight gain on high-fat diet vs untreated high-fat diet” value is on record as “significantly less weight gain”. The “triglyceride level vs controls” value in series [3] was “significantly lower than controls”. For the same compound, in series [3] (fasted overnight, control approximately 120 mg/dL, FIG. 11), the triglyceride level result is reported as “approximately 85 mg/dL”.
With `O=C(O)CNC(=O)c1ncc2cc(Oc3ccccc3)ccc2c1O` [compound C, [(4-Hydroxy-7-phenoxy-isoquinoline-3-carbonyl)-amino]-acetic acid], the “protein levels of GluT-1” value with GluT-1 is given as “increased”.
With `CC(C)Oc1ccc2nc(C(=O)NCC(=O)O)c(O)cc2c1` [compound F, [(3-Hydroxy-6-isopropoxy-quinoline-2-carbonyl)-amino]-acetic acid], the “HIFα stabilization and accumulation (ELISA) compared to vehicle-treated control cells” value in the series with HIF-1α was “stabilization and accumulation of HIFα”.
With `COc1ccc2c(O)c(C(=O)NCC(=O)O)nc(Cl)c2c1` [compound E, [(1-Chloro-4-hydroxy-7-methoxy-isoquinoline-3-carbonyl)-amino]-acetic acid], in series [2], the “abdominal fat pad weight on high-fat diet” value is recorded as “essentially the same fat pad weight as animals fed a normal diet”; the “organ weights of kidney, liver, and heart between experimental groups” value was “not different”; the “body weight gain on high-fat diet vs untreated high-fat diet” value is recorded as “significantly less weight gain”. Moreover, in series [4] (2 g glucose/kg, FIG. 5A), the “glucose clearance rate in IPGTT, treated high-fat diet mice (RxHF) vs mice on standard chow” value is given as “substantially the same”. Moreover, the “glucose AUC in IPGTT, treated mice (RxChow, RxHF) vs standard chow without compound (VeChow)” value in series [4] (FIG. 5B) is on record as “no statistical difference”. Also, in series [4] (t-test, p<0.05, FIG. 5B), the “glucose AUC in IPGTT, high-fat chow without compound (VeHF) vs high-fat chow treated (RxHF)” value was “statistically significant difference”.
Turning to `COC(=O)CNC(=O)c1nc(Cl)c2cc(OCc3ccccc3)ccc2c1O` [compound H, [(7-Benzyloxy-1-chloro-4-hydroxy-isoquinoline-3-carbonyl)-amino]-acetic acid methyl ester], the “HIFα stabilization and accumulation (ELISA) compared to vehicle-treated control cells” value in the series with HIF-1α is “stabilization and accumulation of HIFα”.
`O=C(O)CNC(=O)c1ncccc1O` [compound G, [(3-Hydroxy-pyridine-2-carbonyl)-amino]-acetic acid]: in the series with HIF-1α, the “HIFα stabilization and accumulation (ELISA) compared to vehicle-treated control cells” value was “stabilization and accumulation of HIFα”.
